Results taken from patent US11667602B2, “Compounds and their use” (AstraZeneca AB, priority 2020, dated 2023).
Values after ≈ are worked out from the molar mass of the structure shown. Where two headings read alike, the source gives them in different places.

Assays:
[1] = Human Plasma Protein Binding (Test B); type: in vitro ADME; details: fraction unbound (fu)
How it was run: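 Values given as % free (fu) in human plasma, using the method of Wernevik et al. (2020). For compounds tested more than once, the arithmetic mean is given.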

[2] = Human Liver Microsomal Stability (Test C); type: in vitro ADME; details: human, liver microsomes
How it was run: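 CLint (μl/min/mg protein) derived from compound depletion in human liver microsomes following a published standardized early-DMPK protocol; replicate determinations given as arithmetic mean.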

[3] = Human Hepatocyte Stability (Test D); type: in vitro ADME; details: human, cryopreserved pooled human hepatocytes (LiverPool 10-Donor), geometric mean if run multiple times
How it was run: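 Intrinsic clearance (μL/min/10^6 cells), derived as kV/N from the log-linear loss of parent compound. Compound incubated at 37 °C with cryopreserved pooled human hepatocytes, 0.25×10^6 cells in 0.25 mL L-15; dosing solution 100 μM in acetonitrile. Singlicate incubations, cassette LC-MS; repeats reported as geometric mean.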

[4] = Rat Hepatocyte Stability (Test E); type: in vitro ADME; details: rat, hepatocytes, geometric mean if run multiple times
How it was run: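 Intrinsic clearance in rat hepatocytes, expressed as μl/min/10^6 cells, following the literature integrated DMPK panel method. Repeat determinations combined as geometric mean.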

Solubility (Test F) = type: physicochemical; details: arithmetic mean if run multiple times
Procedure: The assay was conducted according to the Solubility Assay described in pages 164-167 of Wernevik, J. et al., “A Fully Integrated Assay Panel for Early Drug Metabolism and Pharmacokinetics Profiling”, Assay and Drug Development Technologies, 2020, 18(4), 157-179. Data are reported in Table 36 as solubility ([…]. Where the assay was run multiple times for the same compound, the arithmetic mean is reported.

human RXFP1 = molecular target: T1, human RXFP1 (Homo sapiens, UniProt Q9HBX9); test: RXFP1 Hu cAMP (Test A); type: cell-based; set-up: expressed in transfected cells; host or cells: Jump-In T-REx CHO-K1 cells (ThermoFisher), induced with 10 ng/ml doxycycline for 24 h
T1 sequence (Q9HBX9 1-757): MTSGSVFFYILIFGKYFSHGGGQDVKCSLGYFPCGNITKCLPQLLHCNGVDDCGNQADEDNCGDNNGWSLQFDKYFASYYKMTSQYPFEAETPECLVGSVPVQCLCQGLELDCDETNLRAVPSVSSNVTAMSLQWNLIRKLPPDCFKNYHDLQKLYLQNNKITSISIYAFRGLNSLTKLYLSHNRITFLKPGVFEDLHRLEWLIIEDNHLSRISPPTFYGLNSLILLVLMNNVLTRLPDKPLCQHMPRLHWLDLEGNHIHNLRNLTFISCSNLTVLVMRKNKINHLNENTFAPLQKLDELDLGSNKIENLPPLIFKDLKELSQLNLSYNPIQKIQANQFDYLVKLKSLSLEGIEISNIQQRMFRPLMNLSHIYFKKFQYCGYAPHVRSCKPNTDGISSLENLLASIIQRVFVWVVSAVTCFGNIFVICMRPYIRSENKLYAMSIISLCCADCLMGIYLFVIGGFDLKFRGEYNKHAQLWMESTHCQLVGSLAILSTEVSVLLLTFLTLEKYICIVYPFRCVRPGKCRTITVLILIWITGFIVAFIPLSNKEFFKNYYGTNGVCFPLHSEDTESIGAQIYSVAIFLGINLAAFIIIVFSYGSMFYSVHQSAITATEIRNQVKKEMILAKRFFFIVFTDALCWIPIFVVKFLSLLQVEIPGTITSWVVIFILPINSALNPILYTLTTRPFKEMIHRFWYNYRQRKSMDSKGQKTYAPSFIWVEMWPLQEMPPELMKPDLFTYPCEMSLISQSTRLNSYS
How it was run: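 CHO-K1 (Jump-In T-REx), RXFP1 induced w/ 10 ng/ml doxycycline 24 h, cryopreserved. 0.5 mM IBMX final. cAMP by HTRF, 2 h RT, std curve.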

[5] = RXFP1 Hu cAMP, read-out: Test A EC50

SMILES	Test B Human Plasma Protein Binding (% free) [1]	microsomal CLint [2]	hepatocyte CLint at 1 µM [3]	hepatocyte CLint [4]	solubility (Solubility (Test F))	Test A Sinf (human RXFP1; RXFP1 Hu cAMP)	EC50 (human RXFP1; [5])	EC50 (human RXFP1; Test A EC50, RXFP1 Hu cAMP)
CCC(CC)[C@H](C)NC(=O)[C@H]1[C@@H]2CC[C@@H](C2)[C@H]1NC(=O)c1cc(O[C@H]2CC[C@@](C)(C(=O)O)CC2)c(F)cc1OC (single isomer, unassigned) [Example 144, (1S,4s)-4-(5-(((1S,2R,3S,4R)-3-(((R*)-3-Ethylpentan-2-yl)carbamoyl)bicyclo-[2.2.1]heptan-2-yl)carbamoyl)-2-fluoro-4-methoxyphenoxy)-1-methylcyclohexane-1-carboxylic acid]	3 % free	240 µL/min/mg	17 µL/min/1e6 cells	29 µL/min/1e6 cells	29 µM (≈ 16.3 µg/mL)	106%	93 nM	
COc1ccc(O[C@H]2CC[C@@](C)(C(=O)O)CC2)cc1C(=O)N[C@@H]1[C@H]2CC[C@H](C2)[C@@H]1C(=O)NCC1(C)CCC1 [Example 381]	3.8 % free	36 µL/min/mg	6.1 µL/min/1e6 cells	21 µL/min/1e6 cells	1000 µM (≈ 527 µg/mL)			110 nM
COc1cc(F)c(O[C@H]2CC[C@@H](C(N)=O)CC2)cc1C(=O)N[C@H]1[C@@H](C(=O)Nc2ccc(F)c(C(F)(F)F)c2)[C@@H]2C=C[C@H]1C2 [Example 499, (1S,2S,3R,4R)-3-(5-(((1s,4S)-4-Carbamoylcyclohexyl)oxy)-4-fluoro-2-methoxybenzamido)-N-(4-fluoro-3-(trifluoromethyl)phenyl)bicyclo[2.2.1]hept-5-ene-2-carboxamide]	0.51 % free	200 µL/min/mg	28 µL/min/1e6 cells	96 µL/min/1e6 cells	13 µM (≈ 7.9 µg/mL)	128%	100 nM	
COc1cc(F)c(O[C@H]2CC[C@@](CO)(C(=O)O)CC2)cc1C(=O)N[C@@H]1[C@H]2CC[C@H](C2)[C@@H]1C(=O)NCC1(C(F)(F)F)CCC1 [Example 365]	7.8 % free	14 µL/min/mg	9.3 µL/min/1e6 cells	15 µL/min/1e6 cells	980 µM (≈ 602 µg/mL)	113%	57 nM	
CC(C)Oc1cc(F)c(O[C@H]2CC[C@@](CO)(C(=O)O)CC2)cc1C(=O)N[C@@H]1[C@H]2CC[C@H](C2)[C@@H]1C(=O)NCC1(C)CCC1 [Example 486, (1S,4s)-4-(2-Fluoro-4-isopropoxy-5-(((1S,2R,3S,4R)-3-(((1-methylcyclobutyl)methyl)carbamoyl)bicyclo[2.2.1]heptan-2-yl)carbamoyl)phenoxy)-1-(hydroxymethyl)cyclohexane-1-carboxylic acid]	6.8 % free	35 µL/min/mg	22 µL/min/1e6 cells	28 µL/min/1e6 cells	950 µM (≈ 559 µg/mL)	107%	7.6 nM	
COc1cc(F)c(-c2ccc(CCS(N)(=O)=O)cc2)cc1C(=O)N[C@H]1[C@H]2CC[C@H](C2)[C@H]1C(=O)Nc1cccc(S(=O)(=O)C(F)(F)F)c1 (single isomer, unassigned) [Example 326]	<0.35 % free	65 µL/min/mg	8 µL/min/1e6 cells	4.6 µL/min/1e6 cells	8 µM (≈ 5.58 µg/mL)	114%	110 nM	
COc1cc(F)c(Cc2cnn(CC(=O)O)c2)cc1C(=O)N[C@@H]1[C@H]2CC[C@H](C2)[C@@H]1C(=O)Nc1cccc(S(=O)(=O)C(F)(F)F)c1 [Example 220, 2-(4-(2-Fluoro-4-methoxy-5-(((1S,2R,3S,4R)-3-((3-((trifluoromethyl)sulfonyl)phenyl)carbamoyl)bicyclo[2.2.1]heptan-2-yl)carbamoyl)benzyl)-1H-pyrazol-1-yl)acetic acid]	0.95 % free	10 µL/min/mg	7.2 µL/min/1e6 cells	14 µL/min/1e6 cells	940 µM (≈ 613 µg/mL)	109%	1500 nM	
COc1cc(F)c(-c2ccc(S(N)(=O)=O)cc2)cc1C(=O)N[C@@H]1[C@H]2CC[C@H](C2)[C@@H]1C(=O)Nc1cccc(S(=O)(=O)C(F)(F)F)c1 [Example 248]	<3.3 % free	74 µL/min/mg	18 µL/min/1e6 cells	32 µL/min/1e6 cells	2 µM (≈ 1.34 µg/mL)	108%	220 nM	
COc1cc(C#N)c(O[C@H]2CC[C@@](C)(C(=O)O)CC2)cc1C(=O)N[C@@H]1[C@H]2CC[C@H](C2)[C@@H]1C(=O)NC(C)(C)C [Example 99]	20 % free	6.2 µL/min/mg	< 1 µL/min/1e6 cells	11 µL/min/1e6 cells	920 µM (≈ 484 µg/mL)	113%	140 nM	
COc1cc(-c2cc(C(=O)N[C@H]3[C@@H](C(=O)Nc4cccc(S(=O)(=O)C(F)(F)F)c4)[C@@H]4C=C[C@H]3C4)c(OC)cc2F)ccc1C(=O)O (racemic) [Example 226, rac-2′-Fluoro-3,4′-dimethoxy-5′-(((1R,2R,3S,4S)-3-((3-((trifluoromethyl)sulfonyl)phenyl)carbamoyl)bicyclo[2.2.1]hept-5-en-2-yl)carbamoyl)-[1,1′-biphenyl]-4-carboxylic acid]	0.62 % free	12 µL/min/mg	11 µL/min/1e6 cells	16 µL/min/1e6 cells	870 µM (≈ 576 µg/mL)	105%	300 nM	
COc1cc(F)c(-c2ccc(C3(C(=O)O)CC3)cc2)cc1C(=O)N[C@H]1[C@@H](C(=O)Nc2cccc(S(=O)(=O)C(F)(F)F)c2)[C@@H]2C=C[C@H]1C2 (racemic) [Example 288]	<0.32 % free	5.1 µL/min/mg	5 µL/min/1e6 cells	21 µL/min/1e6 cells	24 µM (≈ 16.1 µg/mL)	107%		
CCC1(CNC(=O)[C@H]2[C@@H]3CC[C@@H](C3)[C@H]2NC(=O)c2cc(O[C@H]3CC[C@@](C)(C(=O)O)CC3)c(F)cc2OC)CCC1 [Example 617]	2.4 % free	120 µL/min/mg	12 µL/min/1e6 cells	13 µL/min/1e6 cells	810 µM (≈ 453 µg/mL)	101%	50 nM	
COc1cc(F)c(O[C@H]2CC[C@@](C)(C(=O)O)CC2)cc1C(=O)N[C@@H]1[C@H]2CC[C@H](C2)[C@@H]1C(=O)N[C@H](C)C1(C)CC1 (racemic) [Example 39]	4.8 % free	24 µL/min/mg	8.2 µL/min/1e6 cells	59 µL/min/1e6 cells	980 µM (≈ 534 µg/mL)	96%	740 nM	
COc1cc(C#N)c(O[C@H]2CC[C@@](C)(C(=O)O)CC2)cc1C(=O)NC1C2CCC(O2)C1C(=O)NCC1(C)CCC1 (single isomer, unassigned) [Example 534, (1R,4s)-4-(2-Cyano-4-methoxy-5-(((1S*,2S*,3R*,4R*)-3-(((1-methylcyclobutyl)methyl)carbamoyl)-7-oxabicyclo[2.2.1]heptan-2-yl)carbamoyl)phenoxy)-1-methylcyclohexane-1-carboxylic acid]	7.1 % free	16 µL/min/mg	43 µL/min/1e6 cells	19 µL/min/1e6 cells	> 1000 µM	106%	99 nM	
